Source: article PMC9221371, “Flavonoid Derivatives as Potential Cholinesterase Inhibitors in Scopolamine-Induced Amnesic Mice: An In Vitro, In Vivo and Integrated Computational Approach” (Brain Sciences, 2022)

Key:
[1] = system: brains of scopolamine-induced amnesic mice; assay: Antioxidant enzyme activities and oxidative stress markers in brain homogenate; format: in vivo, Balb/C mice; details: n = 8
Protocol: (§1) The animals in the control (normal) and scopolamine amnesic groups were administered vehicle (Tween-80, 2%) only. Treated animals received F1–F5 suspended in Tween-80 (2%) p.o. at their respective doses for a period of 4 weeks. […] For assessing behavioral effects using the Y-Maze Paradigm and novel object discrimination (NOD) task, scopolamine (1 mg/kg, i.p.) was given to the different groups, 30 min after the respective treatments, to induce memory impairment (amnesia) in mice. All of the tests were performed between 8:00 a.m. and 6:00 p.m. to avoid sham results in the performance of the animals.
The brain was extracted, and a homogenate (10% w/v) in 0.1 M of phosphate buffer (pH 7.4) was prepared by centrifugation for the assessment of brain oxidative status and estimating brain acetylcholinesterase activity. Catalase (CAT), superoxide dismutase (SOD), glutathione (GSH) and level of lipid peroxidation (malondialdehyde, MDA) were quantified as oxidative stress markers.

[2] = system: scopolamine-induced amnesic mice; assay: Y-Maze Paradigm, spontaneous alternation in scopolamine-induced amnesic model; format: in vivo, Balb/C mice; details: scopolamine 1 mg/kg i.p., n = 8
Source text: For assessment of acute toxicity of the flavones (F1–F5), animals (21 in number) were divided into groups of 3 animals each. The reported protocols by Lorke were followed with slight modification to perform tests in two phases. In the first phase, one (control) group of animals were given Tween-80 (2%), and oral doses of F1–F5 were given to the remaining groups, respectively, at various doses (mg/kg body weight). […] The animals were housed in plastic cages. After two weeks, the animals were sacrificed by euthanasia with isoflurane in a humane manner for assessment of the effects on total weight and weight of the vital organs. The biochemical parameters of blood and histological studies of vital organs (kidney and liver tissue) were also assessed. […] The preliminary pharmacological activity was assessed at various dose concentrations of F1–F5 (2.5–20 mg/kg b.w.) to determine the effective dose for assessment of cognitive function using animal models.
as §1
Behavioral tasks on the Y-Maze Paradigm and “NOD” tasks were conducted in the 5th week of study to determine learning and memory functions. The apparatus arena was cleaned with 70% ethanol during the inter-trial interval to prevent a confounding error due to the influence of odor [20, 21].
The Y-Maze task is a non-invasive and reliable behavioral test that was used for memory assessment of spontaneous alternation for F1–F5 based on previously reported protocols. A single session of Y-Maze was used to record the spontaneous alternation behavior of the animals to determine exploratory behavior and instant memory functioning. The apparatus was made of three arms in a “Y” shape (35 cm × 8 cm × 15 cm) with an equilateral triangular central area. In brief, each of the mice, previously naive to the maze, was placed at the terminal end of one arm. The animals were allowed to move and explore freely for 8 min through the maze. The number of arm entries was noted. One arm entry was considered when the hind paws of the animal were completely placed inside the arm, and the series of arm entries were documented. The spontaneous alternation in percent was calculated.

[3] = biological target: T1, AChE (electric eel type-VI-S) (Electrophorus electricus, UniProt O42275); assay: biochemical; details: 25 °C, triplicate
T1 construct: purchased Sigma-Aldrich (Taufkirchen, Germany)
T1 sequence (O42275 24-633): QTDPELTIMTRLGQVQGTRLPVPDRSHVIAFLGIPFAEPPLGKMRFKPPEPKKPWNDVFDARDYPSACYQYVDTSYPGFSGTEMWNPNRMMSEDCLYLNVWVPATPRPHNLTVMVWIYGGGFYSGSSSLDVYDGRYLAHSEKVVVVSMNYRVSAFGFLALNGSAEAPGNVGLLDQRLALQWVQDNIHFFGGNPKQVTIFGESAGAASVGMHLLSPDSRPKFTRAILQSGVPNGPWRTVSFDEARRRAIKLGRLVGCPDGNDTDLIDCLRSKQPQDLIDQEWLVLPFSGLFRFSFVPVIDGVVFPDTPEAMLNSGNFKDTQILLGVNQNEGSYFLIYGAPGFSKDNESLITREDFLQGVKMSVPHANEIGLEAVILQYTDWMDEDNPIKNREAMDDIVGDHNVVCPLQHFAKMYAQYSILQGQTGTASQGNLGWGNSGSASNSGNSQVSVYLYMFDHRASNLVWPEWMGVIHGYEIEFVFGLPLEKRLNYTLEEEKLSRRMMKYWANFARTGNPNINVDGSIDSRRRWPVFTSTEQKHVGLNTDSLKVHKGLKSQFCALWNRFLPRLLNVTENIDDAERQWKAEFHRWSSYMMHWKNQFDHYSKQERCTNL
Protocol: (§2) Synthetic flavonoids F1–F5 previously synthesized by our group were used in the study.
(§3) For the determination of acetylcholinesterase inhibitory potentials, AChE and BuChE were used. […] To the tube were added DTNB (100 µL) and buffer (2.4 mL). The tube was incubated at 25 °C for 5 min as pre-incubation. The reaction was started by adding ATChI (40 µL), and the mixture was incubated at 25 °C for 20 min. The absorbance at 412 nm was measured spectrophotometrically in triplicate. […] The data were recorded in triplicate, and IC50 was calculated.

[4] = biological target: T2, BuChE (equine serum lyophilized) (Equus caballus, UniProt P81908); assay: biochemical; details: triplicate; read-out: BChE IC50 (converted)
T2 construct: purchased Sigma-Aldrich (Taufkirchen, Germany); host or cells: equine serum
T2 sequence (P81908 whole entry): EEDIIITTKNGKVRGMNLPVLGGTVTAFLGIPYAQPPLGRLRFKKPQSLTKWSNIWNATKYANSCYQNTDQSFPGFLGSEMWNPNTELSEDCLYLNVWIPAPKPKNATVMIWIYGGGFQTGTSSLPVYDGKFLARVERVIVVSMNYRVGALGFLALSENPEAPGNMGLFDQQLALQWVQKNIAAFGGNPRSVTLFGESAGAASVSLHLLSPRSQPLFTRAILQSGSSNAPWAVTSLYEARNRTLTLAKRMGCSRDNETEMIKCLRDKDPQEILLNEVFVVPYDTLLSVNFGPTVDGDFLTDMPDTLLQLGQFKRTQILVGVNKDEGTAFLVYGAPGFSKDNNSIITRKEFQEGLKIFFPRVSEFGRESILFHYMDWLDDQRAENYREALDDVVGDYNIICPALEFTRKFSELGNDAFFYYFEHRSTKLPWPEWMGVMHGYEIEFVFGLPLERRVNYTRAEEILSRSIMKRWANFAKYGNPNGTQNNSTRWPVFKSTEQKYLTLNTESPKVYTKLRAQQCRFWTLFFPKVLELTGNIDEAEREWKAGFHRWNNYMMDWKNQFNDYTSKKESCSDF
Protocol: as §2, §3

SMILES	CAT ([1]; 7.5 mg/kg b.w.)	GSH ([1]; 7.5 mg/kg b.w.)	MDA ([1]; 7.5 mg/kg b.w.) [nmol/mg Protein]	SOD ([1]; 7.5 mg/kg b.w.)	CAT ([1]; 15 mg/kg b.w.)	GSH ([1]; 15 mg/kg b.w.)	MDA ([1]; 15 mg/kg b.w.) [nmol/mg Protein]	SOD ([1]; 15 mg/kg b.w.)	Spontaneous Alternation Performance ([2]; 7.5 mg/kg b.w. p.o. 4 weeks) [%]	Spontaneous Alternation Performance ([2]; 15 mg/kg b.w. p.o. 4 weeks) [%]	IC50 [3] [µM]	IC50 [4] [µM]
O=c1cc(-c2ccc(Cl)cc2Cl)oc2ccccc12 [Compound F2]	22.83 ± 1.19 U/mg of Protein	34.93 ± 1.22 μg/mg of Protein	15.16 ± 1.21	9.25 ± 1.36 U/mg of Protein	23.71 ± 1.45 U/mg of Protein	35.91 ± 1.39 μg/mg of Protein	14.90 ± 1.33	9.33 ± 1.45 U/mg of Protein	47.13 ± 1.65	49.88 ± 1.28	451	361
O=c1cc(-c2ccc(Cl)c(Cl)c2)oc2ccccc12 [Compound F4]	22.21 ± 1.40 U/mg of Protein	36.21 ± 1.35 μg/mg of Protein	15.74 ± 1.21	9.30 ± 1.41 U/mg of Protein	23.39 ± 1.32 U/mg of Protein	38.30 ± 1.40 μg/mg of Protein	15.01 ± 1.37	9.71 ± 1.56 U/mg of Protein	57.92 ± 1.41	66.70 ± 1.63	386	418
